According to patent US8394848B2, “Compounds that modulate intracellular calcium” (Calcimedica, Inc., priority 2008, dated 2013):

Experiments:
[1] = target: STIM1 and Orai1 in HEK293 cells (Homo sapiens, UniProt Q96D31); details: STIM1 and Orai1 co-expression; cited from earlier work
Jurkat cells = details: cited from earlier work
[2] = target: T1, recombinant human STIM1 and Orai1 (HEK-293 stable cells; JR251) (Homo sapiens, UniProt Q96D31); assay: Fluorescence-based assay of store-operated calcium entry in Orai1/STIM1 stable cells; assay type: cell-based; details: 50% inhibition of Peak-Basal signal
T1 construct: c-myc (C); expressed in transfected cells
Description: A. Fluorescence-Based Assay of Store-Operated Calcium Entry in Orai1/STIM1 Stable Cells.
Cells stably expressing recombinant human STIM1 and Orai1 were generated by transfecting a human Orai1 expression plasmid (pcDNA3.1-Orai1-cmyc) into HEK-293 cells stably overexpressing human STIM1 (Roos et al. 2005 JCB 169(3): 435-445). Colonies of cells stably expressing both STIM1 and Orai1 proteins were selected and then subcloned by limiting dilution. Cells were cultured at 37° C./6% CO2 in complete medium with 10% FBS and appropriate selection markers.
The day prior to performing the assay Orai1/STIM1 stable cells were plated in 50 μL of complete medium at 90-95% confluence in a 384 well plate. Cells were grown at 37° C./6% CO2 overnight. On the day of the assay, 1.5 μM fluo-4-AM (Invitrogen) in complete medium was added to the cells, which were then incubated for 1 hour at RT. Cells were washed once in Ca^2+-free HBSS (Hank's buffered saline solution) and 35 μl of Ca^2+-free HBSS was added to each well. Test compounds were added to wells in a 10 μL Ca^2+-free HBSS solution, prepared at 4.5× the desired final concentration, and incubated for 30 minutes at RT. The initial baseline fluorescence signal was then measured with a FLIPR^384 (Molecular Devices) plate reader. Calcium entry was initiated by adding 5 μl of 10×CaCl2 (10 mM) in HBSS, and changes in cellular fluorescence were measured with the FLIPR^384 plate reader. In each well, the magnitude of the fluorescence signal as a result of calcium entry into the cell was determined by calculating the difference between the peak fluorescence signal measured after calcium addition and the initial baseline fluorescence signal (designated Peak-Basal). IC50 values were typically calculated as the concentration that inhibited 50% of the Peak-Basal signal (Table A).

RBL-2H3 cells = assay: Fluorescence-based assay of store-operated calcium entry in RBL-2H3 cells; assay type: cell-based; details: Rattus norvegicus, 50% inhibition of Upslope, thapsigargin
Description: B. Fluorescence-Based Assay of Store-Operated Calcium Entry in RBL-2H3Cells.
RBL-2H3 cells were obtained from ATCC and maintained in complete medium with 10% FBS at 37° C./6% CO2.
The day prior to performing the assay, RBL-2H3 cells are plated in 50 μL of complete medium in a 384 well plate. Cells are grown at 37° C./6% CO2 overnight and grow to 50-60% confluence by the next day. On the assay day, 1.5 μM Fluo-4-AM dye (Invitrogen) in complete medium is added and incubated for 1 hour at RT. Cells are washed twice in Ca^2+-free HBSS buffer and 35 μL Ca^2+-free HBSS buffer is added to each well. 10 μL of a test compound prepared in a Ca^2+-free HBSS solution at 4.5× of the desired concentration is added to a well and incubated for 5 minutes at RT. 10 μL of thapsigargin prepared in a Ca^2+-free HBSS solution at 5.5× of the desired concentration (5.5 uM) is added to each well and incubated for an additional 25 minutes. The initial baseline fluorescence signal is measured with a FLIPR^384 (Molecular Devices) plate reader. 5 μL of 12× calcium in HBSS (12 mM) is added and changes in cellular fluorescence are measured with the FLIPR^384 plate reader. In each well, the change in the fluorescent signal as a function of time due to calcium entry into the cell is determined by calculating the difference between the fluorescent signal measured 7 seconds after calcium addition and the initial baseline fluorescence signal at time zero (t=0). This parameter is designated Upslope. The IC50 value is calculated as the concentration at which 50% of the Upslope is inhibited.

T1 sequence (Q96D31 whole entry): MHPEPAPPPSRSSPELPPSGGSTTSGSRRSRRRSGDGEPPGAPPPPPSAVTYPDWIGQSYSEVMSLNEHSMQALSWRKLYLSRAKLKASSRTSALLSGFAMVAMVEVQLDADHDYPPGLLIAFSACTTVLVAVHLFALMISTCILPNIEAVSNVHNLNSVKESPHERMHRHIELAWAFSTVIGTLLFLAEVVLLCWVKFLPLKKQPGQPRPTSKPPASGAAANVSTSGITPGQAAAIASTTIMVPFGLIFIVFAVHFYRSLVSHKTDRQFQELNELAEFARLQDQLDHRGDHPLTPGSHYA
Chain of STIM1 and Orai1 in HEK293 cells (Q96D31 whole entry): as above

| SMILES | block of store-dependent Ca2+ entry [1] | inhibition of SOCE (Jurkat cells) | inhibition of proliferation (Jurkat cells) | IC50 [2] | IC50 (RBL-2H3 cells) |
| --- | --- | --- | --- | --- | --- |
| NCCOB(c1ccccc1)c1ccccc1 [2-aminoethoxydiphenylborate] | completely blocked | – | – | – | – |
| Cc1nnsc1C(=O)Nc1ccc(-n2nc(C(F)(F)F)cc2C(F)(F)F)cc1 [BTP-2] | – | inhibits | inhibits | – | – |
| O=C(CCc1cccs1)Nc1scc(-c2ccc(Cl)cc2)c1C(=O)O [R] | – | – | – | ≤ 0.5 µM | ≤ 0.5 µM |
| O=C(Nc1scc(-c2ccc(Cl)cc2)c1C(=O)O)c1ccc([N+](=O)[O-])o1 [V] | – | – | – | ≤ 0.5 µM | ≤ 0.5 µM |
| O=C(Nc1scc(-c2ccc(Cl)cc2)c1C(=O)O)c1nc(C2CC2)cs1 [W] | – | – | – | ≤ 0.5 µM | ≤ 0.5 µM |
| O=C(Nc1scc(-c2ccc(Cl)cc2)c1C(=O)O)c1cc2nccnc2s1 [X] | – | – | – | ≤ 0.5 µM | ≤ 0.5 µM |
